Experiment [1] deals with T1, human insulin receptor (IR) (Homo sapiens, UniProt P06213). Briefly: Binding affinity to the human insulin receptor relative to human insulin (SPA antibody capture assay). The note with it: binding affinity to the human insulin receptor relative to that of human insulin. On the procedure: The PEGylated single-chain insulins were tested for biological insulin activity as measured by binding affinity to the human insulin receptor (IR) relative to that of human insulin as described below.
Insulin receptor binding of the PEGylated single-chain insulins of the invention.
The affinity of the PEGylated, single-chain insulins the invention for the human insulin receptor is determined by a SPA assay (Scintillation Proximity Assay) microtiterplate antibody capture assay. SPA-PVT antibody-binding beads, anti-mouse reagent (Amersham Biosciences, Cat No. PRNQ0017) are mixed with 25 ml of binding buffer (100 mM HEPES pH 7.8; 100 mM sodium chloride, 10 mM MgSO4, 0.025% Tween-20). Reagent mix for a single Packard Optiplate (Packard No. 6005190) is composed of 2.4 μl of a 1:5000 diluted purified recombinant human insulin receptor—exon 11, an amount of a stock solution of A14 Tyr[125I]-human insulin corresponding to 5000 cpm per 100 μl of reagent mix, 12 μl of a 1:1000 dilution of F12 antibody, 3 ml of SPA-beads and binding buffer to a total of 12 ml. A total of 100 μl is then added and a dilution series is made from appropriate samples. To the dilution series is then added 100 μl of reagent mix and the samples were incubated for 16 hours while gently shaken. The phases are then separated by centrifugation for 1 min and the plates counted in a Topcounter. The binding data are fitted using the nonlinear regression algorithm in the GraphPad Prism 2.01 (GraphPad Software, San Diego, Calif.).
Target sequence in this assay (P06213 28-746 isoform P06213-2 limits assumed): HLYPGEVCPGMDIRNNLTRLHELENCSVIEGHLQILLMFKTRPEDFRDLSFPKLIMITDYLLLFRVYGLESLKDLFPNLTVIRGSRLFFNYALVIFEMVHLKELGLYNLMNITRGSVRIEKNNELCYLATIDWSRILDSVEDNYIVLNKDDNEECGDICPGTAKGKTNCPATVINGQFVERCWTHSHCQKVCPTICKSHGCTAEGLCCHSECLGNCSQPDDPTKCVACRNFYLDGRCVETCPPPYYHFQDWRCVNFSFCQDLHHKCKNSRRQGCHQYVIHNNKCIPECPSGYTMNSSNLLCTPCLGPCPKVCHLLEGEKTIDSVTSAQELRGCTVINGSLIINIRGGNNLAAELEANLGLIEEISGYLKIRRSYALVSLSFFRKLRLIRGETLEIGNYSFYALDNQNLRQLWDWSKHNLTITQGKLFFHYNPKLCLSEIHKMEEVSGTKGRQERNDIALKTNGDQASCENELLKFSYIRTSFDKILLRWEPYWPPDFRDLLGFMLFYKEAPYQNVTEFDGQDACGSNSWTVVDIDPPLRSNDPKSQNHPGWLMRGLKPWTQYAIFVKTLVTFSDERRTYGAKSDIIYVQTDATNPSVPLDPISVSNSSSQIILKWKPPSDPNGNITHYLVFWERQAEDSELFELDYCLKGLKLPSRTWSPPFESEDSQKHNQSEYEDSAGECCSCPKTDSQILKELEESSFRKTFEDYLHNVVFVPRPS
Target sequence in this assay (P06213 763-1382 partner limits assumed): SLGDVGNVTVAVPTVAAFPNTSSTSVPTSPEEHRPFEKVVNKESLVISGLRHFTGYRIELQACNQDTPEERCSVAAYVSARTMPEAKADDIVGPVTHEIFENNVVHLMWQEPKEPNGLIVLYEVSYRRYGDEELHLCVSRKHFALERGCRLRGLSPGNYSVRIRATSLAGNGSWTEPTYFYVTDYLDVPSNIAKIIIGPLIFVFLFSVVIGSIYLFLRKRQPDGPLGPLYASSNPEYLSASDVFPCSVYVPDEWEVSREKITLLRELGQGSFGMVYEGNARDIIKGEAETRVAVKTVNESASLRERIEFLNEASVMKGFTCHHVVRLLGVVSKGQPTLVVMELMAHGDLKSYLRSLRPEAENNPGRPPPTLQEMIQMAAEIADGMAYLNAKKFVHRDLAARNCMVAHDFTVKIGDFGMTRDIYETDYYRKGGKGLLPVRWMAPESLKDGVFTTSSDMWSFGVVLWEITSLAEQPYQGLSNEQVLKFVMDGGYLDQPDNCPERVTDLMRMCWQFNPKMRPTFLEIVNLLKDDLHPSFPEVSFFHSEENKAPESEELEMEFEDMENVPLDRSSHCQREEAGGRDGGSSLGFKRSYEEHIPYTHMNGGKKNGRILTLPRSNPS

The target of experiment [2] is T1, human insulin receptor (IR). Nature of the experiment: displacement of 125I-human insulin from human insulin receptor; affinity relative to human insulin.
Target sequence in this assay (P06213 other isoform, or with tags, fused parts or gaps limits assumed, form in doubt): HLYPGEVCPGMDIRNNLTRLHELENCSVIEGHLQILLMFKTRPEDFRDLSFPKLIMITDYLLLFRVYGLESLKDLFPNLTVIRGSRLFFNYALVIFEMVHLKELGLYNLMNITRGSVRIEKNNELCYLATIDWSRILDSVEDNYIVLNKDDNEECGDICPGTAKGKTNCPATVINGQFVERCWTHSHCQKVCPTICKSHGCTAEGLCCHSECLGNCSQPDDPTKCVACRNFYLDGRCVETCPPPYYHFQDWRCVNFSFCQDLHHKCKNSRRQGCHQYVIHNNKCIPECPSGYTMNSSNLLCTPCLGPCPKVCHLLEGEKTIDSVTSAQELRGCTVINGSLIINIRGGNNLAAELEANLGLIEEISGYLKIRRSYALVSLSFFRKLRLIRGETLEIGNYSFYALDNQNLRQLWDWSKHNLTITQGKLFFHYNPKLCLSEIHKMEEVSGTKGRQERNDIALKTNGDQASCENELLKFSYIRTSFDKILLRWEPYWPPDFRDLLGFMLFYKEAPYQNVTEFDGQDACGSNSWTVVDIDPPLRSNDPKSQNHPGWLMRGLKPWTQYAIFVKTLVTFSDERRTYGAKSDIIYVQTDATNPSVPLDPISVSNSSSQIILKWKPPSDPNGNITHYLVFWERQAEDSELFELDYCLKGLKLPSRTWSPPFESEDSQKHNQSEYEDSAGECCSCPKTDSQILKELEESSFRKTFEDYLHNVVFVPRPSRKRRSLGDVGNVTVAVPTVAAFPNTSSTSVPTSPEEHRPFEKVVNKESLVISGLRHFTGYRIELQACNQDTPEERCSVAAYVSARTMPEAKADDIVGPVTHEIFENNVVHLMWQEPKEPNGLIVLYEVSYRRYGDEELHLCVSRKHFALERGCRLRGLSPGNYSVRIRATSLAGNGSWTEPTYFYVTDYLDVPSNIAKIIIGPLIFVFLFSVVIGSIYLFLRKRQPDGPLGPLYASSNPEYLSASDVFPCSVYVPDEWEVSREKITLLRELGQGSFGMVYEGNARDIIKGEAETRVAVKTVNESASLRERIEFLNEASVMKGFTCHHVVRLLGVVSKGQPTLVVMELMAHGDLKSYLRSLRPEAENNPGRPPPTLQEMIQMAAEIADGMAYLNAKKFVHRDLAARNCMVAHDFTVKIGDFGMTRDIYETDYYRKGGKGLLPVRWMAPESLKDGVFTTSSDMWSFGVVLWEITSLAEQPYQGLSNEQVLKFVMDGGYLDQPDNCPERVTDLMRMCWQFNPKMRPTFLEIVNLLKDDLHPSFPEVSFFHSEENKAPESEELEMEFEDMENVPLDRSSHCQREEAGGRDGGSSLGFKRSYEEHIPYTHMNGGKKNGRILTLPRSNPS

Take “B(1-29)-B29K(N^ε-3-(mPEG2000-yl-propionyl)-VGLSSGQ-A(1-21)-A18Q Human Insulin [Example 3]”: in experiment [1], the “IR binding in percent of human insulin” value was 5.3%.
The same measure, in the same setting: for “B(1-29)-B29A-VGLSSGQ-A(1-21)-A8K(N^ε-3-(mPEG2000-yl)propionyl)-A18Q Human Insulin [Example 4]” the value was 4.6%.
“B(1-29)-B29A-VGLSSGQ-A(1-21)-A8K(N^ε-3-(mPEG2000-yl)propionyl)-A18Q Human Insulin (from UniProt P01308 25-53; P01308 90-110) (ligand)” yielded an IR binding in percent of human insulin in experiment [2] of 4.6%.
The same measure, in the same setting: for “B(1-29)-B29K(N^ε-3-(mPEG2000-yl-propionyl)-VGLSSGQ-A(1-21)-A18Q Human Insulin (from UniProt P01308 25-53; P01308 90-110) (ligand)” the value was 5.3%; for “B(1-29)-B1(N^α-3-(mPEG2000-yl)propionyl)-B29A-VGLSSGQ-A(1-21)-A18Q Human Insulin (from UniProt P01308 25-53; P01308 90-110) (ligand)”, 8.1%.
Consider “B(1-29)-B3Q-B29R-TGLGK(N^ε-3-(mPEG2000-yl)propionyl)GQ-A(1-21)-A18Q-A21G Human Insulin [Example 1]”, for which the “IR binding in percent of human insulin” value in experiment [1] turned out to be 6.8%.
In experiment [2], “B(1-29)-B3Q-B29R-TGLGK(N^ε-3-(mPEG2000-yl)propionyl)GQ-A(1-21)-A18Q-A21G Human Insulin (from UniProt P01308 25-53; P01308 90-110) (ligand)” gave an IR binding in percent of human insulin of 6.8%.
Still for that read-out and setting: under “B(1-29)-B29A-VGLSSGQ-A(1-22)-A18Q-A22K(N^ε-3-(mPEG2000-yl)propionyl) Human Insulin (from UniProt P01308 25-53; P01308 90-110) (ligand)” stands 12%.
“B(1-29)-B3K(N^ε-3-(mPEG2000-yl)propionyl)-B29A-VGLSSGQ-A(1-21)-A18Q Human Insulin (from UniProt P01308 25-53; P01308 90-110) (ligand)”: the IR binding in percent of human insulin in experiment [2] was 4.5%.
Take “B(1-29)-B1(N^α-3-(mPEG2000-yl)propionyl)-B29A-VGLSSGQ-A(1-21)-A18Q Human Insulin [Example 8]”: in experiment [1], the “IR binding in percent of human insulin” value is given as 8.1%.
On to “B(1-29)-B29A-VGLSSGQ-A(1-22)-A18Q-A22K(N^ε-3-(mPEG2000-yl)propionyl) Human Insulin [Example 6]”, for which, in experiment [1], the “IR binding in percent of human insulin” value was 12%.
As for “B(1-29)-B22K(N^ε-3-(mPEG2000-yl)propionyl)-B29A-A18Q-VGLSSGQ-A(1-21) Human Insulin (from UniProt P01308 25-53; P01308 90-110) (ligand)”, the IR binding in percent of human insulin in experiment [2] came to 19.7%.
“B(1-29)-B29A-VK(N^ε-3-(mPEG2000-yl)propionyl)LSSGQ-A(1-21)-A18Q Human Insulin [Example 5]”: the “IR binding in percent of human insulin” value in experiment [1] was 3.2%.
The same measure, in the same setting: for “B(1-29)-B3K(N^ε-3-(mPEG2000-yl)propionyl)-B29A-VGLSSGQ-A(1-21)-A18Q Human Insulin [Example 7]” the value was 4.5%; for “B(1-29)-B22K(N^ε-3-(mPEG2000-yl)propionyl)-B29A-A18Q-VGLSSGQ-A(1-21) Human Insulin [Example 2]”, 19.7%.
As to “B(1-29)-B29A-VK(N^ε-3-(mPEG2000-yl)propionyl)LSSGQ-A(1-21)-A18Q Human Insulin (from UniProt P01308 25-53; P01308 90-110) (ligand)”, the IR binding in percent of human insulin in experiment [2] was found to be 3.2%.

For the origin of these results see patent US20100216690A1, “Pegylated Single-Chain Insulin” (Novo Nordisk A/S, priority 2005, published 2010).
